Measured values published in ChEMBL document CHEMBL1122681, “(Acylaryloxy)acetic acid diuretics. 5. [(2-Alkyl- and 2,2-disubstituted-1,3-dioxo-5-indanyl)oxy]acetic acids” (J Med Chem, 1984).

Columns and labels:
Canis familiaris [1] = experiment: Compound was evaluated for diuretic activity, in female mongrel dogs by measuring volume of urine, after iv administration of 5 mg/kg (control/compound treatment results) Control = 1; assay type: ADME, organism-based, Canis lupus familiaris; parameters: dose 5 mg/kg, route intravenous; settings: dog, in vivo
[2] = volume of urine at 9 mg/kg; assay type: ADME, organism-based; parameters: dose 9 mg/kg; settings: in vivo
Rattus norvegicus [3] = experiment: Compound was evaluated for diuretic activity administered orally in female rats measured as milliequivalents of Na+x 100 / cage at 3 mg/kg; assay type: functional, Urine; settings: route oral
Pan troglodytes [4] = experiment: Compound was evaluated for diuretic activity in chimpanzee measured as increase in volume of urine at 0.125 mg/kg; assay type: functional
Pan troglodytes [5] = experiment: Compound was evaluated for diuretic activity in chimpanzee measured as increase in the number of microequivalents of Cl- electrolyte/min at 5 mg/kg; assay type: functional, Urine
Pan troglodytes [6] = experiment: Compound was evaluated for diuretic activity in chimpanzee measured as increase in volume of urine at 1 mg/kg; assay type: functional
[7] = volume of urine at 3 mg/kg; assay type: ADME, organism-based; parameters: dose 3 mg/kg; settings: in vivo
[8] = volume of urine at 27 mg/kg; assay type: ADME, organism-based; parameters: dose 27 mg/kg; settings: in vivo
Canis familiaris [9] = experiment: Compound was evaluated for diuretic activity, in female mongrel dogs by measuring amount of K+ in urine after iv administration of 5 mg/kg (control/compound treatment results) Control = 5; assay type: functional, Canis lupus familiaris
Rattus norvegicus [10] = experiment: Compound was evaluated for diuretic activity administered orally in female rats measured as milliequivalents of Na+x 100 / cage at 27 mg/kg; assay type: functional, Urine; settings: route oral
Pan troglodytes [11] = experiment: Compound was evaluated for diuretic activity in chimpanzee measured as clearance of […] and urate after intra venous administration of 1.25 mg/kg.; assay type: functional, Urine
Rattus norvegicus [12] = experiment: Compound was evaluated for diuretic activity administered orally in female rats measured as milliequivalents of Cl-x 100 / cage at 81 mg/kg; assay type: functional, Urine; settings: route oral
Rattus norvegicus [13] = experiment: Compound was evaluated for diuretic activity administered orally in female rats measured as milliequivalents of Cl-x 100 / cage at 9 mg/kg; assay type: functional, Urine; settings: route oral
[14] = volume of urine at 81 mg/kg; assay type: ADME, organism-based; parameters: dose 81 mg/kg; settings: in vivo
Pan troglodytes [15] = experiment: Compound was evaluated for diuretic activity in chimpanzee measured as increase in the number of microequivalents of cl- /min at 1.25 mg/kg; assay type: functional, Urine
Pan troglodytes [16] = experiment: Compound was evaluated for diuretic activity in chimpanzee measured as increase in the number of microequivalents of Na+ /min at 1.25 mg/kg; assay type: functional, Urine
Pan troglodytes [17] = experiment: Compound was evaluated for diuretic activity in chimpanzee measured as increase in the number of microequivalents of K+ /min at 5 mg/kg; assay type: functional, Urine
Canis familiaris [18] = experiment: Compound was evaluated for diuretic activity, in female mongrel dogs by measuring amount of Na+ in urine after iv administration of 5 mg/kg (control/compound treatment results) Control = 42; assay type: functional, Canis lupus familiaris
Rattus norvegicus [19] = experiment: Compound was evaluated for diuretic activity administered orally in female rats measured as milliequivalents of Na+x 100 / cage at 9 mg/kg; assay type: functional, Urine; settings: route oral
Rattus norvegicus [20] = experiment: Compound was evaluated for diuretic activity administered orally in female rats measured as milliequivalents of K+x 100 / cage at 9 mg/kg; assay type: functional, Urine; settings: route oral
Rattus norvegicus [21] = experiment: Compound was evaluated for diuretic activity administered orally in female rats measured as milliequivalents of K+x 100 / cage at 81 mg/kg; assay type: functional, Urine; settings: route oral
Pan troglodytes [22] = experiment: Compound was evaluated for diuretic activity in chimpanzee measured as increase in the number of microequivalents of K+ /min at 1.25 mg/kg; assay type: functional, Urine
Rattus norvegicus [23] = experiment: Compound was evaluated for diuretic activity administered orally in female rats measured as milliequivalents of Na+x 100 / cage at 81 mg/kg; assay type: functional, Urine; settings: route oral
Pan troglodytes [24] = experiment: Compound was evaluated for diuretic activity in chimpanzee measured as clearance of […] and urate after peroral administration of 5 mg/kg; assay type: functional, Urine; settings: route oral
Rattus norvegicus [25] = experiment: Compound was evaluated for diuretic activity administered orally in female rats measured as milliequivalents of K+x 100 / cage at 27 mg/kg; assay type: functional, Urine; settings: route oral
Rattus norvegicus [26] = experiment: Compound was evaluated for diuretic activity administered orally in female rats measured as milliequivalents of K+x 100 / cage at 3 mg/kg; assay type: functional, Urine; settings: route oral
Canis familiaris [27] = experiment: Compound was evaluated for diuretic activity, in female mongrel dogs by measuring amount of Cl- in urine after iv administration of 5 mg/kg (control/compound treatment results) Control = 8; assay type: functional, Canis lupus familiaris
Rattus norvegicus [28] = experiment: Compound was evaluated for diuretic activity administered orally in female rats measured as milliequivalents of Cl-x 100 / cage at 3 mg/kg; assay type: functional, Urine; settings: route oral
Pan troglodytes [29] = experiment: Compound was evaluated for diuretic activity in chimpanzee measured as increase in the number of microequivalents of Na+ /min at 5 mg/kg; assay type: functional, Urine
Rattus norvegicus [30] = experiment: Compound was evaluated for diuretic activity administered orally in female rats measured as milliequivalents of Cl-+x 100 / cage at 27 mg/kg; assay type: functional, Urine; settings: route oral
Canis familiaris [31] = experiment: Compound was evaluated for diuretic activity, in female mongrel dogs by measuring amount of Na+ in urine after iv administration of 5 mg/kg (control/compound treatment results) Control = 59; assay type: functional, Canis lupus familiaris
Canis familiaris [32] = experiment: Compound was evaluated for diuretic activity, in female mongrel dogs by measuring volume of urine, after iv administration of 5 mg/kg (control/compound treatment results) Control = 2; assay type: ADME, organism-based, Canis lupus familiaris; parameters: dose 5 mg/kg, route intravenous; settings: dog, in vivo
Pan troglodytes [33] = experiment: Compound was evaluated for diuretic activity in chimpanzee measured as increase in the number of microequivalents of Cl- electrolyte/min at 1 mg/kg; assay type: functional, Urine
Pan troglodytes [34] = experiment: Compound was evaluated for diuretic activity in chimpanzee measured as increase in the number of microequivalents of K+ /min at 1 mg/kg; assay type: functional, Urine
Pan troglodytes [35] = experiment: Compound was evaluated for diuretic activity in chimpanzee measured as increase in the number of microequivalents of Cl- /min at 5 mg/kg; assay type: functional, Urine
Pan troglodytes [36] = experiment: Compound was evaluated for diuretic activity in chimpanzee measured as clearance of […] and urate after intra venous administration of 5 mg/kg.; assay type: functional, Urine
Canis familiaris [37] = experiment: Compound was evaluated for diuretic activity, in female mongrel dogs by measuring amount of K+ in urine after iv administration of 5 mg/kg (control/compound treatment results) Control = 13; assay type: functional, Canis lupus familiaris
Pan troglodytes [38] = experiment: Compound was evaluated for diuretic activity in chimpanzee measured as increase in volume of urine at 5 mg/kg; assay type: functional
Pan troglodytes [39] = experiment: Compound was evaluated for diuretic activity in chimpanzee measured as increase in the number of microequivalents of Na+ /min at 1 mg/kg; assay type: functional, Urine
Canis familiaris [40] = experiment: Compound was evaluated for diuretic activity, in female mongrel dogs by measuring amount of Cl- in urine after iv administration of 5 mg/kg (control/compound treatment results) Control = 5; assay type: functional, Canis lupus familiaris

## CCC1(C)C(=O)c2cc(OCC(=O)O)c(Cl)c(Cl)c2C1=O (centres undefined)
Canis familiaris [1]
  Urine volume: 2 mL/min
[2]
  Urine volume: 29 mL
Rattus norvegicus [3]
  Activity: 50
Pan troglodytes [4]
  Increase in volume: 1.4 mL/min
Pan troglodytes [5]
  Increase: 226
Pan troglodytes [6]
  Increase in volume: 2 mL/min
[7]
  Urine volume: 30 mL
[8]
  Urine volume: 27 mL
Canis familiaris [9]
  Activity: 7 u equiv min-1
Rattus norvegicus [10]
  Activity: 101
Pan troglodytes [11]
  Delta C urate / delta C insulin: 0.43
Rattus norvegicus [12]
  Activity: 250
Rattus norvegicus [13]
  Activity: 97
[14]
  Urine volume: 31 mL
Pan troglodytes [15]
  Increase: 267
Pan troglodytes [16]
  Increase: 187
Pan troglodytes [17]
  Increase: 30
Canis familiaris [18]
  Activity: 247 u equiv min-1
Rattus norvegicus [19]
  Activity: 80
Rattus norvegicus [20]
  Activity: 35
Rattus norvegicus [21]
  Activity: 89
Pan troglodytes [22]
  Increase: 41
Rattus norvegicus [23]
  Activity: 164
Pan troglodytes [24]
  Delta C urate / delta C insulin: 0.007
Rattus norvegicus [25]
  Activity: 43
Rattus norvegicus [26]
  Activity: 46
Canis familiaris [27]
  Activity: 179 u equiv min-1
Rattus norvegicus [28]
  Activity: 64
Pan troglodytes [29]
  Increase: 217
Rattus norvegicus [30]
  Activity: 130

## Cc1c(OCc2nn[nH]n2)cc2c(c1Cl)C(=O)C1(CCCC1)C2=O
Canis familiaris [31]
  Activity: 193 u equiv min-1
Canis familiaris [32]
  Urine volume: 3 mL/min
Pan troglodytes [33]
  Increase: 172
Pan troglodytes [6]
  Increase in volume: 0.6 mL/min
Pan troglodytes [34]
  Increase: 55
Pan troglodytes [35]
  Increase: 36
Pan troglodytes [36]
  Delta C urate / delta C insulin: 0.128
Canis familiaris [37]
  Activity: 27 u equiv min-1
Pan troglodytes [38]
  Increase in volume: 0 mL/min
Pan troglodytes [39]
  Increase: 119
Pan troglodytes [17]
  Increase: 2
Pan troglodytes [24]
  Delta C urate / delta C insulin: 0.026
Pan troglodytes [29]
  Increase: 5
Canis familiaris [40]
  Activity: 11 u equiv min-1
